These results are taken from paper PMC4247201 (Cancer research, 2014).

Data set [1] relates to SJSA-1 osteosarcoma cell line. The experiment in a line: qRT-PCR of p53 target gene mRNA in SJSA-1 cells. Type of data set: cell-based. The conditions noted are these: for effect on mRNA levels of Bax and Noxa: qRT-PCR.
For another data set, the system named is SJSA-1. Briefly: WST cell growth inhibition, SJSA-1. Type of data set: cell-based.
For the next data set, the system named is RS4;11. The experiment in a line: WST cell growth inhibition, RS4. It counts as cell-based.
The subject of another data set is LANCaP. Briefly: WST cell growth inhibition, LANCaP. Type of data set: cell-based.
The test system of another data set is HCT-116. Briefly: WST cell growth inhibition, HCT-116. It counts as cell-based.
In another data set the test system is HCT-116 (p53−/−). The experiment in a line: WST cell growth inhibition, HCT-116. It counts as cell-based.
In another data set the target is human MDM2 protein (Homo sapiens, UniProt Q00987). The experiment in a line: fluorescence-polarization competitive binding assay, MDM2 1–118.
Another data set addresses MDM2 18–118 protein (Homo sapiens, UniProt Q00987). The experiment in a line: FP binding assay, truncated MDM2 18–118. The note with it: MDM2 18–118 vs 1–118.
Another data set has as its target MDM2 25–118 protein (Homo sapiens, UniProt Q00987). The experiment in a line: FP binding assay, truncated MDM2 25–118. The note with it: MDM2 25–118 vs 1–118.
In a further data set the test system is MDMx. Briefly: Biolayer Interferometry binding to MDMx. The note with it: at 10 μM.
For another data set, the system named is Bcl-2. The experiment in a line: binding to Bcl-2. The note with it: at 10 μM.
Another data set has as its system Bcl-xL. The experiment in a line: binding to Bcl-xL. The note with it: at 10 μM.
Another data set concerns Mcl-1. Briefly: binding to Mcl-1. The conditions noted are these: at 10 μM.
The test system of the next data set is β-catenin. The experiment in a line: binding to β-catenin. The note with it: at 10 μM.
Data set [2] can be described thus: stability in cell culture media and two other solutions. Type of data set: physicochemical. The note with it: cell culture media and two other solutions in which some spiro-oxindoles isomerize.
Data set [3] can be described thus: oral pharmacokinetics in mice. Type of data set: in vivo.
The nature of data set [4]: oral pharmacokinetics in rats. Type of data set: in vivo.
The nature of data set [5]: oral pharmacokinetics in dogs. It counts as in vivo.
In data set [6] the test system is HCT-116 colon cancer cell line. Briefly: qRT-PCR of p53 target gene mRNA in HCT-116 cells. It counts as cell-based.
Data set [7] relates to SJSA-1, HCT-116, RS4;11 and LNCaP cell lines. Briefly: Western blotting of p53 activation in four cell lines. Type of data set: cell-based.
The next data set relates to SAOS-2. Briefly: WST cell growth inhibition, SAOS-2. It counts as cell-based. The note with it: Homo sapiens, SAOS-2, read-out: Cell growth Inhibition (IC50, μM).
For another data set, the system named is PC-3. Briefly: WST cell growth inhibition, PC-3. Type of data set: cell-based. The note with it: Homo sapiens, PC-3, read-out: Cell growth Inhibition (IC50, μM).
In the next data set the test system is SW620. The experiment in a line: WST cell growth inhibition, SW620. Type of data set: cell-based. The note with it: Homo sapiens, SW-620, read-out: Cell growth Inhibition (IC50, μM).
Data set [8] deals with wild-type p53 cancer cell lines of diverse tumor types. Briefly: cell growth inhibition, wild-type p53 lines. It counts as cell-based.
The subject of data set [9] is cancer cell lines with a mutated or deleted p53. The experiment in a line: cell growth inhibition, mutated or deleted p53 lines. Type of data set: cell-based. The conditions noted are these: read-out: IC50 of cell growth inhibition.
Data set [10] concerns SJSA-1 cells with p53 knock-down. Type of data set: cell-based.
The test system of the next data set is SJSA-1 xenograft tumors. Briefly: SJSA-1 osteosarcoma xenograft efficacy. The conditions noted are these: SJSA-1 model. It counts as in vivo, SCID mice.
Another data set has as its system RS4;11 xenograft tumors. Briefly: RS4. It counts as in vivo, SCID mice. The conditions noted are these: RS4;11 model.
In the next data set the test system is LNCaP xenograft tumors. Briefly: LNCaP prostate cancer xenograft efficacy. It counts as in vivo, SCID mice. The note with it: LNCaP model.
Another data set deals with HCT-116 xenograft tumors. The experiment in a line: HCT-116 colon cancer xenograft efficacy. It counts as in vivo, SCID mice. The conditions noted are these: HCT-116 model.
A further data set deals with SJSA-1 tumor tissue. The experiment in a line: pharmacodynamics, qRT-PCR in SJSA-1 tumor tissue. The note with it: single oral dose. It counts as in vivo, mice.
For data set [11], the system named is HCT-116 xenograft tumor tissue. The experiment in a line: pharmacodynamics, qRT-PCR in HCT-116 tumor tissue. Type of data set: in vivo, mice. The note with it: single oral dose, even at 200 mg/kg.
The subject of data set [12] is LNCaP prostate cancer cell line. Briefly: flow cytometry cell cycle and apoptosis, LNCaP. Type of data set: cell-based.
In data set [13] the test system is HCT-116 colon cancer cell line. The experiment in a line: flow cytometry cell cycle and apoptosis, HCT-116. It counts as cell-based.
For data set [14] the following is noted: mouse, in vivo.
Data set [15] can be described thus: tolerability in efficacy experiments. The conditions noted are these: mice, all dose-scheduled tests of the efficacy experiments.
The mark [16] stands for this setting: read-out: Cell growth Inhibition (IC50), SJSA-1, p53 Wild Type.
Setting [17] is: read-out: Cell growth Inhibition (IC50), RS4;11, p53 Wild Type.
[18] abbreviates: read-out: Cell growth Inhibition (IC50), LANCaP, p53 Wild Type.
Where [19] appears, read: read-out: Cell growth Inhibition (IC50), HCT-116, p53 Wild Type.
[20] abbreviates: Homo sapiens, HCT-116, read-out: Cell growth Inhibition (IC50, μM).

SMILES strings stand for the structures. Like-named read-outs stand apart in the source and are kept apart here. Where only a bound is given, the exact number is not on record here.

Take `CC(C)(C)C[C@H]1N[C@@H](C(=O)NCC[C@H](O)CO)[C@H](c2cccc(Cl)c2)[C@@]12C(=O)Nc1cc(Cl)c(F)cc12.Cl` [MI-219]: the “effect on mRNA levels of Bax and Noxa” value in data set [1] (SJSA-1 cells) was “no significant effect”. In addition, the concentration for half-maximal inhibition (IC50) in the data set with SJSA-1 (setting [16]) was 1.4 ± 0.2 µM; with RS4;11 (setting [17]), 1 ± 0.2 µM; in the data set with LANCaP (setting [18]) it was 1.1 ± 0.1 µM; in the data set with HCT-116 (setting [19]), 0.95 ± 0.05 µM; in the data set on HCT-116 (p53−/−) (read-out: Cell growth Inhibition (IC50), HCT-116 (p53−/−), p53 Deletion), more than 10 µM.

Turning to `COc1ccc(C2=N[C@@H](c3ccc(Cl)cc3)[C@@H](c3ccc(Cl)cc3)N2C(=O)N2CCNC(=O)C2)c(OC(C)C)c1` [Nutlin-3a], the “effect on mRNA levels of Bax and Noxa” value in data set [1] (SJSA-1 cells) is “no significant effect”. Further, the half-maximal inhibitory concentration (IC50) with SJSA-1 (setting [16]) was found to be 1.3 ± 0.2 µM; in the data set on RS4;11 (setting [17]), 0.57 ± 0.13 µM; with LANCaP (setting [18]), 1.2 ± 0.4 µM; with HCT-116 (setting [19]), 0.86 ± 0.11 µM.

Regarding `CC(C)(C)C[C@@H]1N[C@@H](C(=O)N[C@H]2CC[C@H](O)CC2)[C@H](c2cccc(Cl)c2F)[C@]12C(=O)Nc1cc(Cl)ccc12` [SAR405838], the “times more potent than MI-219 in MDM2 binding” value on human MDM2 protein (comparator MI-219) is listed as more than 10 times. The “times more potent than nutlin-3a in MDM2 binding” value on human MDM2 protein (comparator nutlin-3a) is more than 50 times. Also, the “times more potent than the p53 peptide in MDM2 binding” value at human MDM2 protein (comparator p53 peptide) is reported as > 1,000 times. The “times weaker than with the MDM2 1–118 protein” value is given as 10 times on MDM2 18–118 protein and 25 times on MDM2 25–118 protein. The “binding to MDMx” value in the data set on MDMx is “no appreciable binding”. For the same molecule, in the data set with Bcl-2, the “binding to Bcl-2” value is listed as “no appreciable binding”. In addition, the “binding to Bcl-xL” value with Bcl-xL is “no appreciable binding”. The “binding to Mcl-1” value in the data set on Mcl-1 was “no appreciable binding”. For the same molecule, the “binding to β-catenin” value in the data set on β-catenin is on record as “no appreciable binding”. Also, the stability in solution result in data set [2] was “stable”. Besides, the “oral pharmacokinetics (PK)” value in [3], in data set [4] and in [5] was “good” each time. Moreover, the EC50 is 300 to 600 nM in [1] (Homo sapiens, SJSA-1, read-out: EC50 of up-regulation of MDM2, p21 and PUMA mRNA); 700 nM in data set [6] (Homo sapiens, HCT-116, read-out: EC50 of increase of MDM2 and p21 mRNA). Further, the “effect on p53 mRNA” value is “no effect” in data set [1] (SJSA-1 cells) and “no increase” in data set [6] (HCT-116 cells). Also, the “times more potent than MI-219 and nutlin-3a in induction of p21 and MDM2 transcription” value in data set [1] (SJSA-1 cells) and in data set [6] (HCT-116 cells) was 5–10 times each time. Further, the “induction of PUMA mRNA” value in data set [1] (SJSA-1 cells, at 1 μM) stood at 19 fold. For the same molecule, the “effect on mRNA levels of Bax and Noxa” value in data set [1] (SJSA-1 cells) was “no significant effect”. Further, the “increase of PUMA mRNA” value is reported as ~ 3 fold in data set [6] (HCT-116 cells, at 1 and 3 μM); more than 40 fold with SJSA-1 tumor tissue. The “times more potent than MI-219 in activation of p53” value in [7] is recorded as more than 10 times. Besides, the 50% inhibitory concentration (IC50) is 0.092 ± 0.019 µM with SJSA-1 (Homo sapiens, SJSA-1, read-out: Cell growth Inhibition (IC50, μM)); 0.089 ± 0.027 µM in the data set on RS4;11 (Homo sapiens, RS4-11, read-out: Cell growth Inhibition (IC50, μM)); 0.27 ± 0.03 µM with LANCaP (read-out: Cell growth Inhibition (IC50, μM)); 0.2 ± 0.04 µM with HCT-116 (setting [20]); more than 20 µM in the data set with HCT-116 (p53−/−) (setting [20]); more than 10 µM in the data set with SAOS-2. Further, the results for the half-inhibitory concentration (IC50) (in the data set on PC-3; in the data set with SW620; in [9]) were more than 10 µM, more than 10 µM and not below 10000 nM, respectively. The “times more potent than MI-219 and nutlin-3a in inhibition of cell growth” value in [8] was 5–10 times. In data set [10], the “reduction of potency in cell growth inhibition by p53 knock-down” value is more than 20 times. For the same molecule, the antitumor activity result is “no significant activity” in the data set with SJSA-1 xenograft tumors (10 mg/kg daily oral for 2 weeks); “partial tumor regression” in the data set with SJSA-1 xenograft tumors (30 mg/kg daily oral for 2 weeks); “rapid, complete and persistent tumor regression” in the data set on SJSA-1 xenograft tumors (100 mg/kg daily oral for 2 weeks); “effectively inhibits tumor growth” in the data set on SJSA-1 xenograft tumors (single 100 mg/kg oral dose); “partial tumor regression” in the data set with RS4;11 xenograft tumors (50 mg/kg daily dosing); “complete tumor regression” in the data set with RS4;11 xenograft tumors (100 mg/kg daily dosing). For the same molecule, the antitumor activity entry with RS4;11 xenograft tumors (200 mg/kg daily dosing) was “complete tumor regression”; in the data set with LNCaP xenograft tumors (100 mg/kg daily for 4 weeks), “completely inhibits tumor growth”; in the data set on HCT-116 xenograft tumors (200 mg/kg daily dosing), “completely inhibits tumor growth”. Also, in the data set with SJSA-1 xenograft tumors (100 mg/kg daily oral, after four doses), the “shrinkage of average tumor volume” value is more than 90%. Also, the tumor free mice worked out at 8 mice with SJSA-1 xenograft tumors (100 mg/kg daily, day 55, 31 days after the last dose, of 8 mice) and 8 mice in the data set on RS4;11 xenograft tumors (200 mg/kg, day 71, 25 days after the last dose, of 8 mice). This molecule displayed a tumor free animals in the data set on SJSA-1 xenograft tumors (100 mg/kg daily, day 73, 2 months after the last dose, 5 out of 8) of 63%. For the same molecule, the “mice with complete tumor regression” value in the data set on SJSA-1 xenograft tumors (single oral dose of 200 mg/kg) is 100%. Further, the “tumor growth inhibition over the vehicle control” value with LNCaP xenograft tumors (50 mg/kg daily for 4 weeks) is recorded as 70%; in the data set with HCT-116 xenograft tumors (100 mg/kg daily dosing, end of the treatment), more than 80%. This molecule also had a tumor regression in the data set on LNCaP xenograft tumors (200 mg/kg daily for 4 weeks) of 80%. The “maximum induction of PUMA mRNA over the control” value in [11] was 3 fold. Also, the “concentration that effectively inhibits cell cycle progression” value in [12] (24 h treatment) was not below 0.3 µM; in [13] (HCT-116, 24 h treatment), not below 0.3 µM. The apoptosis induction entry is listed as “modest or minimal effect” in data set [12] (even at 10 μM) and “modest or minimal effect” in [13] (HCT-116, even at 10 μM). The signs of toxicity entry in [14] was “no signs of toxicity”. The weight loss result in data set [15] is “less than 10%”.
